# Measured values from US20260297083A1, “SUBSTITUTED ACETYLENE COMPOUND DERIVATIVES AND THEIR PHARMACEUTICAL USE” (AVELOS THERAPEUTICS INC., priority 2023, published 2026).
# Target: T1, Polθ polymerase domain (amino acids 1792-2590) (Homo sapiens, UniProt O75417)
# T1 construct: 10×Histidine-SUMO (N, cleaved yes); made in house; host or cells: E. coli
# T1 sequence (O75417 1792-2590): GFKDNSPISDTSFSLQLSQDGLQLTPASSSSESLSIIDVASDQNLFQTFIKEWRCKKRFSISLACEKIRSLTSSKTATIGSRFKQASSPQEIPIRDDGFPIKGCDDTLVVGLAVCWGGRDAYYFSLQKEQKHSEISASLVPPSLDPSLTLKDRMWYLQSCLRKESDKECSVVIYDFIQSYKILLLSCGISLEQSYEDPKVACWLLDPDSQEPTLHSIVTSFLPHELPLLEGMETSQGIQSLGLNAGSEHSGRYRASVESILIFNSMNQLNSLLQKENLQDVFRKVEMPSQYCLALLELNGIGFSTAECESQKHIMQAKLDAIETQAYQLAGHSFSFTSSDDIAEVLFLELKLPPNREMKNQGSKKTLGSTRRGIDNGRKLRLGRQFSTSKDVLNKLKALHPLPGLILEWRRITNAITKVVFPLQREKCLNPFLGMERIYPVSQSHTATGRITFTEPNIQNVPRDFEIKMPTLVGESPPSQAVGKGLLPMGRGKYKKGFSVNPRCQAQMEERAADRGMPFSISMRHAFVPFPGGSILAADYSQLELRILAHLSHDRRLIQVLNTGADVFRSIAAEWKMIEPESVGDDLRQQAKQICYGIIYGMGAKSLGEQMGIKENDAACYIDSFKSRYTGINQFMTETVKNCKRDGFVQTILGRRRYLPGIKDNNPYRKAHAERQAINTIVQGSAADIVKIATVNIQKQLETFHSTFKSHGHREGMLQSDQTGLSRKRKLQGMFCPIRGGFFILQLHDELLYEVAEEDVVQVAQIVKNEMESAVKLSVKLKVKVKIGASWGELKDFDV
# Experiment: Picogreen assay of Polθ polymerase activity
# Type: biochemical
# Conditions: 12-point concentration response, 90 minutes incubation at room temperature, 8 nM Polθ in 2×polymerase mixture, read-out: PolQ IC50
# Method in brief: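 E. coli-expressed polymerase domain with His-SUMO tag removed; 2× enzyme mix (8 nM) combined with 2× substrate mix (100 nM annealed primer/template DNA, 40 uM dNTPs). Buffer 25 mM Tris-HCl pH 7.5, 12.5 mM NaCl, 0.5 mM MgCl2, 1 mM DTT. Reaction 90 min at room temperature, then EDTA/Picogreen stain read at 485/520 nm; 12-point IC50.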
row,IC50 [nM],Compound
1,1 to 50,Cc1cc(C(F)(F)F)cc(N2[C@H](C(=O)N(CC#Cc3nc(C(N)=O)co3)c3ccc(F)c(C)c3)CCS2(=O)=O)n1 [compound 104]
2,1 to 50,Cc1cc(C(F)(F)F)cc(N2[C@H](C(=O)N(CC#Cc3ccc(C(N)=O)cc3)c3ccc(F)c(C)c3)CCS2(=O)=O)n1 [compound 105]
3,1 to 50,Cc1cc(C(F)(F)F)cc(N2[C@H](C(=O)N(CC#Cc3cccc(C(N)=O)c3)c3ccc(F)c(C)c3)CCS2(=O)=O)n1 [compound 106]
4,1 to 50,Cc1cccc(N(CC#Cc2ccc(N)nn2)C(=O)[C@@H]2CN(C)S(=O)(=O)N2c2cc(C(F)(F)F)cc(C)n2)c1 [compound 107]
5,51 to 100,Cc1cccc(N(CC#Cc2cnc(N)cn2)C(=O)[C@@H]2CN(C)S(=O)(=O)N2c2cc(C(F)(F)F)cc(C)n2)c1 [compound 108]
6,1 to 50,Cc1cc(C(F)(F)F)cc(N2[C@H](C(=O)N(CC#Cc3ccc(N)nn3)c3ccc(F)c(C)c3)CN(C)S2(=O)=O)n1 [compound 109]
7,1 to 50,Cc1cc(C(F)(F)F)cc(N2[C@H](C(=O)N(CC#Cc3ccc(N)nn3)c3ccc(F)c(C)c3)CN(C(C)C)S2(=O)=O)n1 [compound 110]
8,1 to 50,Cc1cc(C(F)(F)F)cc(N2[C@H](C(=O)N(CC#Cc3ccc(C(=O)N(C)C)nc3)c3ccc(F)c(C)c3)CCS2(=O)=O)n1 [compound 111]
9,> 101,Cc1cc(C(F)(F)F)cc(N2[C@H](C(=O)N(CC#Cc3ccc(C(N)=O)nc3)C(C)(C)c3ccc(F)c(C)c3)CCS2(=O)=O)n1 [compound 112]
10,> 101,Cc1cc(C(F)(F)F)cc(N2[C@H](C(=O)N(CC#Cc3ccc(C(N)=O)nc3)Cc3ccc(F)c(C)c3)CCS2(=O)=O)n1 [compound 113]
11,> 101,Cc1cc(C(F)(F)F)cc(N2[C@@H](C(=O)N(CC#Cc3ccc(C(N)=O)nc3)Cc3ccc(F)c(C)c3)CCS2(=O)=O)n1 [compound 114]
12,1 to 50,Cc1cc(C(F)(F)F)cc(N2[C@H](C(=O)N(CC#Cc3ccc(C#N)nc3)c3ccc(F)c(C)c3)CCS2(=O)=O)n1 [compound 115]
13,1 to 50,Cc1cc(C(F)(F)F)cc(N2[C@H](C(=O)N(CC#Cc3ccc(-c4ncon4)nc3)c3ccc(F)c(C)c3)CCS2(=O)=O)n1 [compound 116]
14,1 to 50,Cc1cc(C(F)(F)F)cc(N2[C@H](C(=O)N(CC#Cc3ccc(C(N)=O)nc3C)c3ccc(F)c(C)c3)CCS2(=O)=O)n1 [compound 117]
15,1 to 50,Cc1cc(C(F)(F)F)cc(N2[C@H](C(=O)N(CC#Cc3ncc(C(N)=O)nc3C)c3ccc(F)c(C)c3)CCS2(=O)=O)n1 [compound 118]
16,1 to 50,Cc1cc(C(F)(F)F)cc(N2[C@H](C(=O)N(CC#Cc3nc(C)c(C(N)=O)nc3C)c3ccc(F)c(C)c3)CCS2(=O)=O)n1 [compound 119]
17,1 to 50,Cc1cc(C(F)(F)F)cc(N2[C@H](C(=O)N(CC#Cc3cccc(C(N)=O)n3)c3ccc(F)c(C)c3)CCS2(=O)=O)n1 [compound 120]
18,1 to 50,Cc1cc(C(F)(F)F)cc(N2[C@H](C(=O)N(CC#Cc3cnc(C(N)=O)c(C#N)c3)c3ccc(F)c(C)c3)CCS2(=O)=O)n1 [compound 121]
19,1 to 50,Cc1cc(C(F)(F)F)cc(N2[C@H](C(=O)N(CC#Cc3cc(F)c(C(N)=O)cn3)c3ccc(F)c(C)c3)CCS2(=O)=O)n1 [compound 122]
20,1 to 50,Cc1cc(C(F)(F)F)cc(N2[C@H](C(=O)N(CC#Cc3cnc(C(N)=O)nn3)c3ccc(F)c(C)c3)CCS2(=O)=O)n1 [compound 123]

row,IC50 [nM],Compound
1,1 to 50,Cc1cc(C(F)(F)F)cc(N2[C@H](C(=O)N(CC#Cc3ncc(C(N)=O)nn3)c3ccc(F)c(C)c3)CCS2(=O)=O)n1 [compound 124]
2,1 to 50,Cc1cc(N(CC#Cc2cnc(N3CCOCC3)cn2)C(=O)[C@@H]2CCS(=O)(=O)N2c2cc(C(F)(F)F)cc(C(F)(F)F)n2)ccc1F [compound 125]
3,1 to 50,Cc1cc(N(CC#Cc2ccc(C(N)=O)nc2)C(=O)[C@@H]2CCS(=O)(=O)N2c2cc(C(F)(F)F)cc(C(F)(F)F)n2)ccc1F [compound 126]
4,1 to 50,C=CC(=O)Nc1cncc(C#CCN(C(=O)[C@@H]2CCS(=O)(=O)N2c2cc(C(F)(F)F)cc(C)n2)c2ccc(F)c(C)c2)c1 [compound 127]
5,1 to 50,C=CC(=O)Nc1cncc(C#CCN(C(=O)[C@@H]2CCS(=O)(=O)N2c2cc(C(F)(F)F)cc(C)n2)c2ccc(F)c(C)c2)n1 [compound 128]
6,1 to 50,C=CC(=O)Nc1ccc(C#CCN(C(=O)[C@@H]2CCS(=O)(=O)N2c2cc(C(F)(F)F)cc(C)n2)c2ccc(F)c(C)c2)nn1 [compound 129]
7,1 to 50,C=C(F)C(=O)Nc1cncc(C#CCN(C(=O)[C@@H]2CCS(=O)(=O)N2c2cc(C(F)(F)F)cc(C)n2)c2ccc(F)c(C)c2)c1 [compound 130]
8,1 to 50,Cc1cc(C(F)(F)F)cc(N2[C@H](C(=O)N(CC#Cc3ccc(Cc4ccc(C(N)=O)nn4)nc3)c3ccc(F)c(C)c3)CCS2(=O)=O)n1 [compound 131]
9,1 to 50,Cc1cc(C(F)(F)F)cc(N2[C@H](C(=O)N(CC#Cc3ccc(Cc4ncc(C(N)=O)cn4)nc3)c3ccc(F)c(C)c3)CCS2(=O)=O)n1 [compound 132]
10,1 to 50,Cc1cc(C(F)(F)F)cc(N2[C@H](C(=O)N(CC#Cc3ccc(Cc4ccc(=O)[nH]n4)nc3)c3ccc(F)c(C)c3)CCS2(=O)=O)n1 [compound 133]
11,1 to 50,Cc1cc(C(F)(F)F)cc(N2[C@H](C(=O)N(CC#Cc3ccc(Cc4cnc5ccc(=O)[nH]c5c4)nc3)c3ccc(F)c(C)c3)CCS2(=O)=O)n1 [compound 134]
12,1 to 50,Cc1cc(C(F)(F)F)cc(N2[C@H](C(=O)N(CC#Cc3ccc(Cc4cccc5c(=O)[nH]cnc45)nc3)c3ccc(F)c(C)c3)CCS2(=O)=O)n1 [compound 135]
13,1 to 50,Cc1cc(C(F)(F)F)cc(N2[C@H](C(=O)N(CC#Cc3ccc(Cn4cc5cccc(C(N)=O)c5n4)nc3)c3ccc(F)c(C)c3)CCS2(=O)=O)n1 [compound 136]
14,1 to 50,"C=CC(=O)Nc1cccc(C#CCN(C(=O)[C@@H]2CCS(=O)(=O)N2c2cc(C(F)(F)F)cc(C)n2)c2ccc(F)c(C)c2)n1 [compound 137, (S)-N-(3-(6-acrylamidopyridin-2-yl)prop-2-yn-1-yl)-N-(4-fluoro-3-methylphenyl)-2-(6-methyl-4-(trifluoromethyl)pyridin-2-yl)isothiazolidine-3-carboxamide 1,1-dioxide]"
15,1 to 50,"C=CC(=O)Nc1ccnc(C#CCN(C(=O)[C@@H]2CCS(=O)(=O)N2c2cc(C(F)(F)F)cc(C)n2)c2ccc(F)c(C)c2)c1 [compound 138, (S)-N-(3-(4-acrylamidopyridin-2-yl)prop-2-yn-1-yl)-N-(4-fluoro-3-methylphenyl)-2-(6-methyl-4-(trifluoromethyl)pyridin-2-yl)isothiazolidine-3-carboxamide 1,1-dioxide]"
16,1 to 50,"C=CC(=O)Nc1cc(C#CCN(C(=O)[C@@H]2CCS(=O)(=O)N2c2cc(C(F)(F)F)cc(C)n2)c2ccc(F)c(C)c2)ccn1 [compound 139, (S)-N-(3-(2-acrylamidopyridin-4-yl)prop-2-yn-1-yl)-N-(4-fluoro-3-methylphenyl)-2-(6-methyl-4-(trifluoromethyl)pyridin-2-yl)isothiazolidine-3-carboxamide 1,1-dioxide]"
17,1 to 50,"C=CC(=O)Nc1ccc(C#CCN(C(=O)[C@@H]2CCS(=O)(=O)N2c2cc(C(F)(F)F)cc(C)n2)c2ccc(F)c(C)c2)nc1 [compound 140, (S)-N-(3-(5-acrylamidopyridin-2-yl)prop-2-yn-1-yl)-N-(4-fluoro-3-methylphenyl)-2-(6-methyl-4-(trifluoromethyl)pyridin-2-yl)isothiazolidine-3-carboxamide 1,1-dioxide]"
18,1 to 50,"C=CC(=O)Nc1ccc(C#CCN(C(=O)[C@@H]2CCS(=O)(=O)N2c2cc(C(F)(F)F)cc(C)n2)c2ccc(F)c(C)c2)cn1 [compound 141, (S)-N-(3-(6-acrylamidopyridin-3-yl)prop-2-yn-1-yl)-N-(4-fluoro-3-methylphenyl)-2-(6-methyl-4-(trifluoromethyl)pyridin-2-yl)isothiazolidine-3-carboxamide 1,1-dioxide]"
19,1 to 50,"C=CC(=O)Nc1cccnc1C#CCN(C(=O)[C@@H]1CCS(=O)(=O)N1c1cc(C(F)(F)F)cc(C)n1)c1ccc(F)c(C)c1 [compound 142, (S)-N-(3-(3-acrylamidopyridin-2-yl)prop-2-yn-1-yl)-N-(4-fluoro-3-methylphenyl)-2-(6-methyl-4-(trifluoromethyl)pyridin-2-yl)isothiazolidine-3-carboxamide 1,1-dioxide]"
